Inhibition data for 1 compound are collected here from US20240174744A1, “METHODS OF TREATMENT USING PROTEIN BINDERS TO IRHOM2 EPITOPES” (SCIRHOM GMBH, priority 2021, published 2024).

Experiment [1] deals with PMA-induced release of TNFα from U-937 cells. Put plainly: ELISA-based TNFα release assay, PMA-stimulated U-937 cells. It is filed as cell-based. The note with it: Homo sapiens, U-937, 1 h, Batimastat 10 μM, PMA 25 ng/ml. The procedure: In contrast to Example 14 and 17, where the inhibitory effects of the antibodies of the present disclosure on LPS-induced release of endogenous TNFα from human THP-1 cells were tested, this analysis was conducted with recombinantly produced murine antibodies of the present disclosure to verify their inhibitory effects on PMA-induced release of endogenous TNFα from human monocytic U-937 cells.
In brief, on day 1, Nunc black MaxiSorp® 96-well plates (Thermo Fisher Scientific, USA) were coated overnight with 100 μl per well of mouse anti-human TNFα capture antibody (provided as part of the DuoSet ELISA kit) at 4 μg/ml TBS at 4° C. On day 2, the capture antibody solution was removed and MaxiSorp® plates were blocked with 300 μl per well of TBS, 1% BSA at room temperature for 1-2 hours. […] Using an infinite M1000 (Tecan Group, Switzerland) microplate reader, the fluorescence of each well was collected at an excitation wavelength of 435 nm and an emission wavelength of 555 nm. […]
For orientation: ELISA stands for enzyme-linked immunosorbent assay.

For experiment [2], the system named is PMA-induced release of HB-EGF from U-937 cells. Put plainly: ELISA-based HB-EGF release assay, PMA-stimulated U-937 cells. It is filed as cell-based. The note with it: Homo sapiens, murine (m) and chimeric (ch) antibodies 3 μg/ml, Batimastat 10 μM, PMA 25 ng/ml, 6 hours. The procedure:
Complementary to Example 29 described above, ELISA-based HB-EGF release assays were performed to verify the inhibitory effects of the antibodies of the present disclosure on PMA-induced release of endogenous HB-EGF from human U-937 cells.
The production of the recombinant antibody material that was used in this example is identical to the one described in Example 25. The ELISA-based HB-EGF release assay that was used in this example is identical with the one described in Example 30, with the only difference, that U-937 (European Collection of Authenticated Cell Cultures, UK) cells were used instead of THP-1 (American Type Culture Collection, USA) cells.

Take `CNC(=O)[C@H](Cc1ccccc1)NC(=O)[C@H](CC(C)C)[C@H](CSc1cccs1)C(=O)NO` [Batimastat]: the inhibition at 10 µM turned out to be 98.7% in experiment [1] (murine (m) and chimeric (ch) antibodies 3 μg/ml); 100% in experiment [1] (recombinant murine antibodies 1 μg/ml); 100% in experiment [2].

One may read the inhibition as the relative decrease from the control value, in per cent.
